The assay concerns the target T1, NAD-dependent protein deacetylase sirtuin-1 (Homo sapiens) (UniProt Q96EB6).
T1 sequence (whole entry): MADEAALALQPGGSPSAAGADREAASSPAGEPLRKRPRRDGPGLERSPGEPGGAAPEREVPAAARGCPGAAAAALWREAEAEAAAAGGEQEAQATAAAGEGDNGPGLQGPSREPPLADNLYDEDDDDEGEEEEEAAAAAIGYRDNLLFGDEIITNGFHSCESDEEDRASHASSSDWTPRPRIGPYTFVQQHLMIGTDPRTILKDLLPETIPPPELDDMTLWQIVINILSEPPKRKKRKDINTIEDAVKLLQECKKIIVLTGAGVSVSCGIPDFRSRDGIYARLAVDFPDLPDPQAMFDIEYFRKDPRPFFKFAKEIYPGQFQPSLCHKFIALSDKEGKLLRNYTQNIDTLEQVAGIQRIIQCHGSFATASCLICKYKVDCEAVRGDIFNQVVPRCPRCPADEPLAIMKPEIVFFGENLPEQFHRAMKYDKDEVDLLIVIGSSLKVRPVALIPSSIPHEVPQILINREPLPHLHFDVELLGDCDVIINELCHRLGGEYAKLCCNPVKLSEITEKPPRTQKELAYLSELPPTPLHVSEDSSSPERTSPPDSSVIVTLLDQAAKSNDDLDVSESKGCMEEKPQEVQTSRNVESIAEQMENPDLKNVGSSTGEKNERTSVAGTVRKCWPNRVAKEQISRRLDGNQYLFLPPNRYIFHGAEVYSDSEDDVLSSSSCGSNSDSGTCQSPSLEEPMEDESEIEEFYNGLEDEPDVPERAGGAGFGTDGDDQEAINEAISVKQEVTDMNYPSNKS
Particulars: Sf9.

For two compounds, ΔTm results are on record in ChEMBL document CHEMBL2311441.

In the case of `NC(=O)[C@@H]1CCCCc2c1[nH]c1ccc(Cl)cc21`, the shift in melting temperature (ΔTm) – broadly, the change in melting temperature against a reference sample – was 10 °C.

For `NC(=O)[C@@H]1CCCc2c1[nH]c1ccc(Cl)cc21`, the thermal shift (ΔTm) was determined as 10 °C.
